Several values for one entry are separate records, joined by “and”; a condition that tells them apart may be missing. Identical values can stand only once. Like-named read-outs stand apart in the source and are kept apart here.
What was measured:
CYP3A4 = CYP3A4 (Homo sapiens, UniProt P08684); details: for % Turnover Mean: both, human, microsomes, 1 h, pH 7.4
Procedure: (§4) Human liver microsomes pooled from 15 individuals (male and female) (Pool HMMC-PL020; CellzDirect, Inc., In Vitro Products and Services Division) were used in some experiments of this study.
(§5) % Turnover=100−{[TA(final)]/[mean of TA(0 min)]}×100,
(§6) % Inhibition of Turnover=100{1−([TA(0 min)]−[TA(final-inhibitor)])/([TA(0 min)]−[TA(final-no inhibitor)])}.
(§7) The inhibitors or vehicle control were incubated with the pooled human liver microsomes (1 mg/mL) and NADPH (1 mM) in 0.1 M phosphate buffer, pH 7.4. […] Incubations were conducted in triplicate and terminated by addition of organic solvent. Samples were extracted and analyzed by LC-MS/MS as described above.

CYP2E1 = CYP2E1 (Homo sapiens, UniProt P05181); details: both, microsomes, 1 h, 0.75 μM, pH 7.4
Procedure: as §4, §5, §6, §7

CYP2B6 [1] = target: T1, CYP2B6 (Homo sapiens, UniProt P20813); experiment: Metabolism of metaxalone by expressed recombinant human CYP2B6 at 5 or 20 pmol (Example 4); details: for % Turnover Mean / [metaxalone] Mean / % Turnover % / [metaxalone]: 60 min; for % Turnover % / [metaxalone]: single replicates
T1 sequence (P20813 1-491): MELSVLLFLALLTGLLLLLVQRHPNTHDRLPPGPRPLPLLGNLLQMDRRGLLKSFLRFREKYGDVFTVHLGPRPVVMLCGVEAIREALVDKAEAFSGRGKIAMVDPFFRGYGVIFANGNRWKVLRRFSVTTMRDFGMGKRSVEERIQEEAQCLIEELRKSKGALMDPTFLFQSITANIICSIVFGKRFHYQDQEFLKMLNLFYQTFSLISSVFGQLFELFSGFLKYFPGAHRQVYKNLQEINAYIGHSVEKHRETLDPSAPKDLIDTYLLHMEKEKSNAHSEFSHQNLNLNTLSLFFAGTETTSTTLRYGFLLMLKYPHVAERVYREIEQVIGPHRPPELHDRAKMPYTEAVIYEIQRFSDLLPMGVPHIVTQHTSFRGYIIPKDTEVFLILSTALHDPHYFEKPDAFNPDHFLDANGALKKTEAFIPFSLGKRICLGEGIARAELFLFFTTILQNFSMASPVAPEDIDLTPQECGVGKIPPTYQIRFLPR

CYP2D6 = CYP2D6 (Homo sapiens, UniProt P10635); experiment: Metabolism of metaxalone by expressed recombinant human CYP2D6 at 5 or 20 pmol (Example 4); details: for percent turnover / % Turnover Mean / [metaxalone] Mean / % Turnover % / [metaxalone]: 60 min; for % Turnover % / [metaxalone]: single replicates, listed as Metaxalone
Procedure: For CYP2C9 and CYP2D6, SUPERSOMES singly-expressing different allelic variants of the cytochrome p450 isozyme were commercially available. For each of CYP2C9 and CYP2D6, only the *1 allele was tested in these experiments. […]

CYP2B6 [2] = target: T1, CYP2B6; experiment: Inhibition of CYP2B6 activity in pooled human liver microsomes (S-mephenytoin 1 mM to nirvanol); assay type: in vitro ADME
Procedure: (§1) All other incubations were for 30 minutes.
(§2) Four replicates were performed.
(§3) Two replicates were performed.

CYP2C9 = CYP2C9 (Homo sapiens, UniProt P11712); experiment: Inhibition of CYP2C9 activity in pooled human liver microsomes (tolbutamide 150 μM to 4′-methylhydroxytolbutamide); assay type: in vitro ADME; parameters: host or cells: cryopreserved primary human hepatocytes from three donors
Procedure: as §1, §2, §3

[3] = 0.75 μM metaxalone, 1 mg/mL HLM, 60 min, with ketoconazole
[4] = 0.75 μM metaxalone, 1 mg/mL HLM, 60 min, with ketoconazole, single replicates
[5] = 7.5 μM metaxalone, 1 mg/mL HLM, 60 min, with ketoconazole
[6] = 7.5 μM metaxalone, 1 mg/mL HLM, 60 min, with ketoconazole, single replicates
[7] = 0.75 μM metaxalone, 5 pmol cyp, listed as Metaxalone
[8] = 0.75 μM metaxalone, 20 pmol cyp
[9] = 0.75 μM metaxalone, 20 pmol cyp, listed as Metaxalone
[10] = 7.5 μM metaxalone, 5 pmol cyp, listed as Metaxalone
[11] = 7.5 μM metaxalone, 20 pmol cyp, listed as Metaxalone
[12] = CYP isozyme 2B6, summary of studies

Chain of CYP2C9 (P11712 whole entry): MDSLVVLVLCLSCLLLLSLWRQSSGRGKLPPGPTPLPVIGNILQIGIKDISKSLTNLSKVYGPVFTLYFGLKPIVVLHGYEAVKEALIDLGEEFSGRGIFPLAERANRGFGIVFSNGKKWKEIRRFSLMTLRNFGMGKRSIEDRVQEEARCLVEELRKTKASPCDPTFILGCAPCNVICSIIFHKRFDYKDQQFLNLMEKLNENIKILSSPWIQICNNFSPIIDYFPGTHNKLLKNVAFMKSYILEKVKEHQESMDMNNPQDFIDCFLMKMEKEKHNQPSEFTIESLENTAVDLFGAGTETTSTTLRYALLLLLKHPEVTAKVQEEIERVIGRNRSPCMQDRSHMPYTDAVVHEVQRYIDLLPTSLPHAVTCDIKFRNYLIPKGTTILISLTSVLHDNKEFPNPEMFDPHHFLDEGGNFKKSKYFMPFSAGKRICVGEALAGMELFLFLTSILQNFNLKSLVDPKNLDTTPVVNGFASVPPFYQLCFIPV
Chain of CYP3A4 (P08684 whole entry): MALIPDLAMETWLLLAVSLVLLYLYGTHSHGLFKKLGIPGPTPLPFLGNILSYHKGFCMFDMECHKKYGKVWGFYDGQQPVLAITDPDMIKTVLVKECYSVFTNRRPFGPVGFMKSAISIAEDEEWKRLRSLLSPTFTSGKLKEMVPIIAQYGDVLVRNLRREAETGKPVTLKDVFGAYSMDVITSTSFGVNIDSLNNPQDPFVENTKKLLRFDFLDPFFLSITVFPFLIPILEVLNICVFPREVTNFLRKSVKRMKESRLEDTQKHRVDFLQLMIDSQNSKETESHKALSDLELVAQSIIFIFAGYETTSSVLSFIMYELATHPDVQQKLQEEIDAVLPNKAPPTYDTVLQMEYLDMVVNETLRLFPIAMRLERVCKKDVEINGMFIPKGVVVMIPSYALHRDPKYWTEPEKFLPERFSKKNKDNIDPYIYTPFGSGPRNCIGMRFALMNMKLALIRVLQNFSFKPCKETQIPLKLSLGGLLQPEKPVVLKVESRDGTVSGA
Chain of CYP2D6 (P10635 whole entry): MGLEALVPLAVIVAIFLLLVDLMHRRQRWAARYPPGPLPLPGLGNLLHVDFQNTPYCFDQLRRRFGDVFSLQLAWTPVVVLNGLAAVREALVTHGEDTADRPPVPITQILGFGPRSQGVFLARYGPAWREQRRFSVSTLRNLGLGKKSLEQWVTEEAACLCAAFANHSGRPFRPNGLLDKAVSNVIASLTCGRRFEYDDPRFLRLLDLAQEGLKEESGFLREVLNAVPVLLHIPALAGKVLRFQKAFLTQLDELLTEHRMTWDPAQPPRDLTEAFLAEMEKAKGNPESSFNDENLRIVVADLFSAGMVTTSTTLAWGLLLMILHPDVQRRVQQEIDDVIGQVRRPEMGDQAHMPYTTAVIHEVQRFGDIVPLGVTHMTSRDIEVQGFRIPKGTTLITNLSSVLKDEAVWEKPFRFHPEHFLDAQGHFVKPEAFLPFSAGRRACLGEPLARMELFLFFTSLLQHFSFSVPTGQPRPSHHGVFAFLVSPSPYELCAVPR
Chain of CYP2E1 (P05181 whole entry): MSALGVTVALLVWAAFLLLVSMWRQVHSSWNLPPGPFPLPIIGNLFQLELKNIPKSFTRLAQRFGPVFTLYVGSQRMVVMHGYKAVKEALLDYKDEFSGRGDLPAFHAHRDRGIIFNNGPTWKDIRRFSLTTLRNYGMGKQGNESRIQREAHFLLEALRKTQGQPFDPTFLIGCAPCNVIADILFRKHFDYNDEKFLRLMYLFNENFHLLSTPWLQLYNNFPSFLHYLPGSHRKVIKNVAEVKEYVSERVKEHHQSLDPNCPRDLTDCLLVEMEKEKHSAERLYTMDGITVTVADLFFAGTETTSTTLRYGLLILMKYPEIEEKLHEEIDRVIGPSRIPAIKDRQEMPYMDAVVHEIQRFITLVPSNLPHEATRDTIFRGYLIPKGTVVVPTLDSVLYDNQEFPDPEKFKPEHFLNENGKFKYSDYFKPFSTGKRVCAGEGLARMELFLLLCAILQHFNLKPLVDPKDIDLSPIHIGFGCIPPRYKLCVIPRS

Cc1cc(C)cc(OCC2CNC(=O)O2)c1 (centres unmarked) [metaxalone, 5-[(3,5-dimethylphenoxy)methyl]-2-oxazolidinone]
% inhibition of turnover Mean (CYP3A4; [3]): 126%
Mean Conc. (CYP3A4; [3]): 0.831 µM
% inhibition of turnover (CYP3A4; [4]): 132% and 116% and 130%
Conc. (CYP3A4; [4]): 0.844 µM and 0.807 µM and 0.842 µM
% inhibition of turnover Mean (CYP3A4; [5]): 130%
Mean Conc. (CYP3A4; [5]): 9.13 µM
% Turnover (CYP3A4; [6]): 0.28%
% inhibition of turnover (CYP3A4; [6]): 98.8% and 161% and 129%
Conc. (CYP3A4; [6]): 8.49 µM and 9.78 µM and 9.12 µM
% Turnover Mean (CYP3A4; 0.75 μM): −7.71%
% Turnover Mean (CYP3A4; 7.5 μM): −7.26%
% Turnover Mean (CYP2E1): −3.87%
% Turnover Mean (CYP2B6 [1]; 0.75 μM metaxalone, 5 pmol cyp): −6.8%
[metaxalone] Mean (CYP2B6 [1]; 0.75 μM metaxalone, 5 pmol cyp): 0.845 µM
% Turnover % (CYP2B6 [1]; [7]): −11.0% and −2.8% and −6.6%
[metaxalone] (CYP2B6 [1]; [7]): 0.878 µM and 0.813 µM and 0.843 µM
% Turnover Mean (CYP2B6 [1]; [8]): −1.8%
[metaxalone] Mean (CYP2B6 [1]; [8]): 0.805 µM
% Turnover % (CYP2B6 [1]; [9]): 5.5% and −6.7% and −4.0%
[metaxalone] (CYP2B6 [1]; [9]): 0.748 µM and 0.845 µM and 0.823 µM
% Turnover Mean (CYP2B6 [1]; 7.5 μM metaxalone, 5 pmol cyp): 3.0%
[metaxalone] Mean (CYP2B6 [1]; 7.5 μM metaxalone, 5 pmol cyp): 8.20 µM
% Turnover % (CYP2B6 [1]; 7.5 μM metaxalone, 5 pmol cyp): −1.3%
% Turnover % (CYP2B6 [1]; [10]): 3.0% and 7.2%
[metaxalone] (CYP2B6 [1]; [10]): 8.56 µM and 8.19 µM and 7.84 µM
% Turnover Mean (CYP2B6 [1]; 7.5 μM metaxalone, 20 pmol cyp): −0.20%
[metaxalone] Mean (CYP2B6 [1]; 7.5 μM metaxalone, 20 pmol cyp): 8.46 µM
% Turnover % (CYP2B6 [1]; 7.5 μM metaxalone, 20 pmol cyp): −6.0%
% Turnover % (CYP2B6 [1]; [11]): 1.8% and 3.6%
[metaxalone] (CYP2B6 [1]; [11]): 8.95 µM and 8.29 µM and 8.14 µM
Substrate (CYP2B6 [1]; [12]): 0
percent turnover (CYP2D6; 0.75 μM metaxalone, 5 pmol CYP450): 9.9%
% Turnover Mean (CYP2D6; 0.75 μM metaxalone, 5 pmol cyp): 9.9%
[metaxalone] Mean (CYP2D6; 0.75 μM metaxalone, 5 pmol cyp): 0.642 µM
% Turnover % (CYP2D6; 0.75 μM metaxalone, 5 pmol cyp): 8.8% and 11.6% and 9.1%
[metaxalone] (CYP2D6; 0.75 μM metaxalone, 5 pmol cyp): 0.649 µM and 0.629 µM and 0.647 µM
percent turnover (CYP2D6; 0.75 μM metaxalone, 20 pmol CYP450): 19.5%
% Turnover Mean (CYP2D6; [8]): 19.5%
[metaxalone] Mean (CYP2D6; [8]): 0.573 µM
% Turnover % (CYP2D6; [8]): 23.3% and 16.7% and 18.5%
[metaxalone] (CYP2D6; [8]): 0.546 µM and 0.593 µM and 0.581 µM
percent turnover (CYP2D6; 7.5 μM metaxalone, 5 pmol CYP450): 12.6%
% Turnover Mean (CYP2D6; 7.5 μM metaxalone, 5 pmol cyp): 12.6%
[metaxalone] Mean (CYP2D6; 7.5 μM metaxalone, 5 pmol cyp): 6.74 µM
% Turnover % (CYP2D6; 7.5 μM metaxalone, 5 pmol cyp): 10.7% and 12.5% and 14.5%
[metaxalone] (CYP2D6; 7.5 μM metaxalone, 5 pmol cyp): 6.89 µM and 6.75 µM and 6.60 µM
percent turnover (CYP2D6; 7.5 μM metaxalone, 20 pmol CYP450): 24.9%
% Turnover Mean (CYP2D6; 7.5 μM metaxalone, 20 pmol cyp): 24.9%
[metaxalone] Mean (CYP2D6; 7.5 μM metaxalone, 20 pmol cyp): 5.79 µM
% Turnover % (CYP2D6; 7.5 μM metaxalone, 20 pmol cyp): 23.9% and 23.5% and 27.3%
[metaxalone] (CYP2D6; 7.5 μM metaxalone, 20 pmol cyp): 5.87 µM and 5.90 µM and 5.61 µM
Substrate (CYP2D6; CYP isozyme 2D6, summary of studies): +
inhibition of CYP activity at a statistically significant level (CYP2B6 [2]; 0.3-100 μM metaxalone, p≦0.05): inhibited
Inhibitor (CYP2B6 [2]; [12]): +
Percent of VC (CYP2B6 [2]; metaxalone 0.3 μM): 90.2%
Specific Activity Individual (CYP2B6 [2]; metaxalone 0.3 μM): 27.9 pmol/min/mg protein and 25.6 pmol/min/mg protein and 27.5 pmol/min/mg protein
Specific Activity Mean ± SD (CYP2B6 [2]; metaxalone 0.3 μM): 27.0 ± 1.21 pmol/min/mg protein
Percent of VC (CYP2B6 [2]; metaxalone 1 μM): 99.5%
Specific Activity Individual (CYP2B6 [2]; metaxalone 1 μM): 27.3 pmol/min/mg protein and 29.5 pmol/min/mg protein and 32.6 pmol/min/mg protein
Specific Activity Mean ± SD (CYP2B6 [2]; metaxalone 1 μM): 29.8 ± 2.68 pmol/min/mg protein
Percent of VC (CYP2B6 [2]; metaxalone 3 μM): 90.6%
Specific Activity Individual (CYP2B6 [2]; metaxalone 3 μM): 26.3 pmol/min/mg protein and 26.9 pmol/min/mg protein and 28.2 pmol/min/mg protein
Specific Activity Mean ± SD (CYP2B6 [2]; metaxalone 3 μM): 27.1 ± 1.00 pmol/min/mg protein
Percent of VC (CYP2B6 [2]; metaxalone 30 μM): 96.6%
Specific Activity Individual (CYP2B6 [2]; metaxalone 30 μM): 28.9 pmol/min/mg protein and 28.7 pmol/min/mg protein and 29.2 pmol/min/mg protein
Specific Activity Mean ± SD (CYP2B6 [2]; metaxalone 30 μM): 28.9 ± 0.216 pmol/min/mg protein
Percent of VC (CYP2B6 [2]; metaxalone 100 μM): 83.7%
Specific Activity Individual (CYP2B6 [2]; metaxalone 100 μM): 24.9 pmol/min/mg protein and 24.6 pmol/min/mg protein and 25.7 pmol/min/mg protein
Specific Activity Mean ± SD (CYP2B6 [2]; metaxalone 100 μM): 25.1 ± 0.581 pmol/min/mg protein
inhibition of CYP activity at a statistically significant level (CYP2C9; 0.3-100 μM metaxalone): no tested concentration of metaxalone inhibited activity
Inhibitor (CYP2C9; CYP isozyme 2C9, summary of studies): 0
Percent of VC (CYP2C9; metaxalone 0.3 μM): 81.4%
Specific Activity Individual (CYP2C9; metaxalone 0.3 μM): 36.3 pmol/min/mg protein and 35.8 pmol/min/mg protein and 36.2 pmol/min/mg protein
Specific Activity Mean ± SD (CYP2C9; metaxalone 0.3 μM): 36.1 ± 0.283 pmol/min/mg protein
Percent of VC (CYP2C9; metaxalone 1 μM): 81.6%
Specific Activity Individual (CYP2C9; metaxalone 1 μM): 40.3 pmol/min/mg protein and 37.5 pmol/min/mg protein and 30.6 pmol/min/mg protein
Specific Activity Mean ± SD (CYP2C9; metaxalone 1 μM): 36.2 ± 4.98 pmol/min/mg protein
Percent of VC (CYP2C9; metaxalone 3 μM): 81.2%
Specific Activity Individual (CYP2C9; metaxalone 3 μM): 34.8 pmol/min/mg protein and 34.0 pmol/min/mg protein and 39.1 pmol/min/mg protein
Specific Activity Mean ± SD (CYP2C9; metaxalone 3 μM): 36.0 ± 2.75 pmol/min/mg protein
Percent of VC (CYP2C9; metaxalone 30 μM): 91.0%
Specific Activity Individual (CYP2C9; metaxalone 30 μM): 39.9 pmol/min/mg protein and 38.3 pmol/min/mg protein and 42.8 pmol/min/mg protein
Specific Activity Mean ± SD (CYP2C9; metaxalone 30 μM): 40.3 ± 2.24 pmol/min/mg protein
Percent of VC (CYP2C9; metaxalone 100 μM): 87.4%
Specific Activity Individual (CYP2C9; metaxalone 100 μM): 43.4 pmol/min/mg protein and 36.6 pmol/min/mg protein and 36.3 pmol/min/mg protein
Specific Activity Mean ± SD (CYP2C9; metaxalone 100 μM): 38.8 ± 4.00 pmol/min/mg protein

Reference: patent US20080292584A1 (priority 2005, published 2008)
